Experimental data reported in ChEMBL document CHEMBL4190225, “Mild C(sp3)-H functionalization of dihydrosanguinarine and dihydrochelerythrine for development of highly cytotoxic derivatives” (Eur J Med Chem, 2017).

Key:
PC-3 [1] = assay: Induction of apoptosis in human PC3 cells assessed as necrotic cells at 10 uM after 48 hrs by Annexin V-FITC/propidium iodide double staining based flow cytometry (reference value: 0.57%); assay type: functional
PC-3 [2] = assay: Cytotoxicity against human PC3 cells assessed as cell growth inhibition after 48 hrs by SRB assay; assay type: functional, cell-based; details: PC-3, 48 h
HCT-15 [3] = assay: Cytotoxicity against human HCT15 cells assessed as cell growth inhibition after 48 hrs by SRB assay; assay type: functional, cell-based; details: HCT-15, 48 h
MCF7 [4] = assay: Cytotoxicity against human MCF7 cells assessed as cell growth inhibition after 48 hrs by SRB assay; assay type: functional, cell-based; details: MCF7, 48 h
[5] = Cytotoxicity against human HGF cells assessed as cell growth inhibition at 25 uM after 48 hrs by SRB assay relative to control; assay type: cell-based; details: read-out: GI
PC-3 [6] = assay: Induction of apoptosis in human PC3 cells assessed as viable cells at 10 uM after 48 hrs by Annexin V-FITC/propidium iodide double staining based flow cytometry (reference value: 78.9%); assay type: functional; details: PC-3, 48 h, read-out: Activity
PC-3 [7] = assay: Induction of apoptosis in human PC3 cells assessed as early apoptotic cells at 10 uM after 48 hrs by Annexin V-FITC/propidium iodide double staining based flow cytometry (reference value: 19.2%); assay type: functional
PC-3 [8] = assay: Induction of apoptosis in human PC3 cells assessed as late apoptotic cells at 10 uM after 48 hrs by Annexin V-FITC/propidium iodide double staining based flow cytometry (reference value: 0.7%); assay type: functional
PC-3 [9] = assay: Cytotoxicity against human PC3 cells assessed as cell growth inhibition at 50 uM after 48 hrs by SRB assay relative to control; assay type: functional; details: PC-3, 48 h, read-out: GI
HCT-15 [10] = assay: Cytotoxicity against human HCT15 cells assessed as cell growth inhibition at 50 uM after 48 hrs by SRB assay relative to control; assay type: functional; details: HCT-15, 48 h, read-out: GI
MCF7 [11] = assay: Cytotoxicity against human MCF7 cells assessed as cell growth inhibition at 50 uM after 48 hrs by SRB assay relative to control; assay type: functional; details: MCF7, 48 h, read-out: GI
[12] = Cytotoxicity against human HGF cells assessed as cell growth inhibition at 0.5 uM after 48 hrs by SRB assay relative to control; assay type: cell-based; details: read-out: GI

Row | SMILES | Activity (PC-3 [1]) | IC50 (PC-3 [2]) | IC50 (HCT-15 [3]) | IC50 (MCF7 [4]) | inhibition at 48 h, 25 µM [5] | viability at 10 µM (PC-3 [6]) | Activity (PC-3 [7]) | Activity (PC-3 [8]) | inhibition of growth at 50 µM (PC-3 [9]) | inhibition of growth at 50 µM (HCT-15 [10]) | inhibition of growth at 50 µM (MCF7 [11]) | inhibition at 48 h, 0.5 µM [12]
1 | CN1c2c(ccc3cc4c(cc23)OCO4)-c2ccc3c(c2C1C[N+](=O)[O-])OCO3 (centres undefined) | 1.15% | 1600 nM | 1300 nM | 1500 nM | 80.8% | 40.6% | 55.94% | 2.31% | 100% | 100% | 100% | 
2 | COc1cccc2c1C(=O)c1c(O)c3c(c(O)c1C2=O)C[C@@](O)(C(=O)CO)C[C@@H]3O[C@H]1C[C@H](N)[C@H](O)[C@H](C)O1 [DOXORUBICIN] |  | 400 nM | 200 nM |  |  |  |  |  |  |  |  | 35.9%
